Data from US9024027B2, “Derivatives of 1-phenyl-2-pyridinyl alkyl alcohols as phosphodiesterase inhibitors” (Chiesi Farmaceutici S.p.A., priority 2011, dated 2015).
Counter-ions that a name gives are not always drawn.

Test system: LPS-induced TNF-α release in peripheral blood mononuclear cells (PBMCs)
Experiment: In vitro determination of PDE4 inhibitory activity in the PBMCs assay (LPS-induced TNF-α release)
Assay type: cell-based
Conditions: PBMC; human PBMCs, LPS 3 ng/ml, 18 hours; read-out: PDE4 inhibition (IC50, 50% inhibition of LPS-induced TNF-α release)
Description: The assay, which is based on the known inhibitory activity exerted by PDE4 inhibitors on the lipopolyshaccarides (LPS)-induced tumour necrosis factor-alpha (TNF-α release in peripheral blood mononuclear cells (PBMCs), was performed according to a method previously described (Hatzelmann A et al., J. Pharmacol. Exp. Ther., 2001; 297:267-279; and Draheim R et al., J. Pharmacol. Exp. Ther., 2004; 308:555-563, both of which are incorporated herein by reference in their entireties. Cryopreserved human PBMCs, (100 μl/well) were incubated in 96-well plates (10^5 cells/well), for 30 minutes, in the presence or absence (50 microl) of the test compounds whose concentrations ranged from 10^−12 M to 10^−6 M or from 10^−13 M to 10^−7 M. Subsequently, LPS (3 ng/ml) was added. After 18 hours of incubation at 37° C. in a humidified incubator under an atmosphere of 95% air and 5% CO2, culture medium was collected and TNF-α measured by ELISA.
The results of the tested compounds, representatives of the invention, expressed as mean±95% confidence limits of the molar concentration of the test compound producing 50% inhibition of LPS-induced TNF-α release (IC50) are shown in the following Table: […]

SMILES | IC50 [nM]
CS(=O)(=O)N(CCN1CCOCC1)c1ccc2c(c1)CC(=O)N2CC(=O)O[C@@H](Cc1c(Cl)c[n+]([O-])cc1Cl)c1ccc(OC(F)F)c(OCC2CC2)c1 [Compound 243, (S)-3,5-dichloro-4-(2-(3-(cyclopropylmethoxy)-4-(difluoromethoxy)phenyl)-2-(2-(5-(N-(2-morpholinoethyl)methylsulfonamido)-2-oxoindolin-1-yl)acetoxy)ethyl)pyridine 1-oxide] | < 1
CS(=O)(=O)Nc1cccc2c1C(=O)N(CC(=O)O[C@@H](Cc1c(Cl)c[n+]([O-])cc1Cl)c1ccc(OC(F)F)c(OCC3CC3)c1)C2=O [Compound 162, (S)-3,5-dichloro-4-(2-(3-(cyclopropylmethoxy)-4-(difluoromethoxy)phenyl)-2-(2-(4-(methylsulfonamido)-1,3-dioxoisoindolin-2-yl)acetoxy)ethyl)pyridine 1-oxide] | < 1
CS(=O)(=O)Nc1ccc2c(c1)C(=O)C(=O)N2CC(=O)O[C@@H](Cc1c(Cl)c[n+]([O-])cc1Cl)c1ccc(OC(F)F)c(OCC2CC2)c1 [Compound 99, (S)-3,5-dichloro-4-(2-(3-(cyclopropylmethoxy)-4-(difluoromethoxy)phenyl)-2-(2-(5-(methylsulfonamido)-2,3-dioxoindolin-1-yl)acetoxy)ethyl)pyridine 1-oxide] | 1 to 10
COc1ccc2c(c1)N(CC(=O)O[C@@H](Cc1c(Cl)c[n+]([O-])cc1Cl)c1ccc(OC(F)F)c(OCC3CC3)c1)C(=O)C2=O [Compound 64, (S)-3,5-dichloro-4-(2-(3-(cyclopropylmethoxy)-4-(difluoromethoxy)phenyl)-2-(2-(6-methoxy-2,3-dioxoindolin-1-yl)acetoxy)ethyl)-pyridine 1-oxide] | < 1
CS(=O)(=O)Nc1cccc2c1ccn2CC(=O)O[C@@H](Cc1c(Cl)c[n+]([O-])cc1Cl)c1ccc(OC(F)F)c(OCC2CC2)c1 [Compound 84, (S)-3,5-dichloro-4-(2-(3-(cyclopropylmethoxy)-4-(difluoromethoxy)phenyl)-2-(2-(4-(methylsulfonamido)-1H-indol-1-yl)acetoxy)-ethyl)pyridine 1-oxide] | < 1
CS(=O)(=O)N(CCN1CCOCC1)c1ccc2c(ccn2CC(=O)O[C@@H](Cc2c(Cl)c[n+]([O-])cc2Cl)c2ccc(OC(F)F)c(OCC3CC3)c2)c1 [Compound 230, (S)-3,5-dichloro-4-(2-(3-(cyclopropylmethoxy)-4-(difluoromethoxy)phenyl)-2-(2-(5-(N-(2-morpholinoethyl)methylsulfonamido)-1H-indol-1-yl)acetoxy)ethyl)pyridine 1-oxide hydrochloride] | < 1
CS(=O)(=O)N(CCN1CCCCC1)c1ccc2c(c1)C(=O)N(CC(=O)O[C@@H](Cc1c(Cl)c[n+]([O-])cc1Cl)c1ccc(OC(F)F)c(OCC3CC3)c1)C2=O [Compound 189, (S)-3,5-dichloro-4-(2-(3-(cyclopropylmethoxy)-4-(difluoromethoxy)phenyl)-2-(2-(1,3-dioxo-5-(N-(2-(piperidin-1-yl)ethyl)methylsulfonamido)isoindolin-2-yl)acetoxy)ethyl)pyridine 1-oxide] | > 10
O=C(CN1C(=O)c2ccccc2C1=O)O[C@H](Cc1c(Cl)c[n+]([O-])cc1Cl)c1ccc(OC(F)F)c(OCC2CC2)c1 [Compound 29] | > 10
CS(=O)(=O)Nc1ccc2c(c1)CCN2CC(=O)O[C@@H](Cc1c(Cl)c[n+]([O-])cc1Cl)c1ccc(OC(F)F)c(OCC2CC2)c1 [Compound 131, (S)-3,5-dichloro-4-(2-(3-(cyclopropylmethoxy)-4-(difluoromethoxy)phenyl)-2-(2-(5-(methylsulfonamido)indolin-1-yl)acetoxy)-ethyl)pyridine 1-oxide] | 1 to 10
CC(C(=O)OC(Cc1c(Cl)c[n+]([O-])cc1Cl)c1ccc(OC(F)F)c(OCC2CC2)c1)N1C(=O)c2ccccc2C1=O (stereo not shown) [Compound 18] | < 1
CN1CCN(CCN(c2ccc3c(c2)C(=O)N(CC(=O)O[C@@H](Cc2c(Cl)c[n+]([O-])cc2Cl)c2ccc(OC(F)F)c(OCC4CC4)c2)C3=O)S(C)(=O)=O)CC1 [Compound 213, (S)-3,5-Dichloro-4-(2-(3-(cyclopropylmethoxy)-4-(difluoromethoxy)-phenyl)-2-(2-(5-(N-(2-(4-methylpiperazin-1-yl)ethyl)methylsulfonamido)-1,3-dioxoisoindolin-2-yl)acetoxy)ethyl)pyridine 1-oxide] | < 1
O=C(Cn1ccc2cc(O)ccc21)O[C@@H](Cc1c(Cl)c[n+]([O-])cc1Cl)c1ccc(OC(F)F)c(OCC2CC2)c1 [Compound 42, (S)-3,5-dichloro-4-(2-(3-(cyclopropylmethoxy)-4-(difluoromethoxy)phenyl)-2-(2-(5-hydroxy-1H-indol-1-yl)acetoxy)ethyl)pyridine 1-oxide] | < 1
CS(=O)(=O)N(CCN1CCOCC1)c1ccc2c(c1)C(=O)N(CC(=O)O[C@@H](Cc1c(Cl)c[n+]([O-])cc1Cl)c1ccc(OC(F)F)c(OCC3CC3)c1)C2=O [Compound 182, (S)-3,5-dichloro-4-(2-(3-(cyclopropylmethoxy)-4-(difluoromethoxy)phenyl)-2-(2-(5-(N-(2-morpholinoethyl)methylsulfonamido)-1,3-dioxoisoindolin-2-yl)acetoxy)ethyl)pyridine 1-oxide 2,2,2 trifluoroacetic acid salt] | < 1
Nc1ccc2c(c1)C(=O)N(CC(=O)O[C@@H](Cc1c(Cl)c[n+]([O-])cc1Cl)c1ccc(OC(F)F)c(OCC3CC3)c1)C2 [Compound 9, (S)-4-(2-(2-(6-amino-1-oxoisoindolin-2-yl)acetoxy)-2-(3-(cyclopropylmethoxy)-4-(difluoromethoxy)phenyl)ethyl)-3,5-dichloropyridine 1-oxide] | 1 to 10
O=C(Cn1c(=O)c(=O)n(CCN2CCOCC2)c2ccccc21)O[C@@H](Cc1c(Cl)c[n+]([O-])cc1Cl)c1ccc(OC(F)F)c(OCC2CC2)c1 [Compound 37, (S)-3,5-dichloro-4-(2-(3-(cyclopropylmethoxy)-4-(difluoromethoxy)phenyl)-2-(2-(4-(2-morpholinoethyl)-2,3-dioxo-3,4-dihydroquinoxalin-1(2H)-yl)acetoxy)ethyl)pyridine 1-oxide] | < 1
CS(=O)(=O)Nc1ccc2c(ccn2CC(=O)O[C@@H](Cc2c(Cl)c[n+]([O-])cc2Cl)c2ccc(OC(F)F)c(OCC3CC3)c2)c1 [Compound 76, (S)-3,5-dichloro-4-(2-(3-(cyclopropylmethoxy)-4-(difluoromethoxy)phenyl)-2-(2-(5-(methylsulfonamido)-1H-indol-1-yl)acetoxy)-ethyl)pyridine 1-oxide] | < 1
CS(=O)(=O)N(CCN1CCCC1)c1ccc2c(c1)C(=O)N(CC(=O)O[C@@H](Cc1c(Cl)c[n+]([O-])cc1Cl)c1ccc(OC(F)F)c(OCC3CC3)c1)C2=O [Compound 183] | < 1
O=C(Cn1cnc2ccccc21)O[C@@H](Cc1c(Cl)c[n+]([O-])cc1Cl)c1ccc(OC(F)F)c(OCC2CC2)c1 [Compound 22] | 1 to 10
CS(=O)(=O)N(CCN1CCSCC1)c1ccc2c(c1)C(=O)N(CC(=O)O[C@@H](Cc1c(Cl)c[n+]([O-])cc1Cl)c1ccc(OC(F)F)c(OCC3CC3)c1)C2=O [Compound 215] | < 1
